Results published in patent US20130158070A1, “CONJUGATES OF POLYUNSATURATED FATTY ACIDS AND AMINE-CONTAINING COMPOUNDS AND USES THEREOF” (priority 2010, published 2013).

What was measured:
[1] = tested on: collagen induced arthritis; experiment: Collagen induced arthritis (CIA), PGE2 production and TNFα levels; format: in vivo, black/57 mice; details: 250 mg/(kg/day) orally, 21 days, compared to Ibuprofen 500 mg/(kg/day)
Protocol: Male black/57 mice, age 8-10 weeks, were used in in vivo study of PGE2 production and TNFα levels in collagen induced arthritis (CIA) model.
Bovine CII (type II collagen CII, Sigma, St. Louis, Mo., USA) was dissolved in 0.1 M acetic acid overnight at 4° C. and was thereafter emulsified in an equal volume of complete Freund's adjuvant (Sigma). The mice were immunized intradermally at the base of the tail with 100 μl of emulsion containing 100 μg of CII. On day 21, mice were boosted intraperitoneally with 100 μg CII dissolved in phosphate buffered saline (PBS).
The tested conjugate or Ibuprofen (Sigma, Israel) were dissolved in 80% Cremophor EL:saline 80%:20%, respectively.
Mice were randomly selected and assigned to one of the following groups: tested conjugate (250 mg/(kg/day); n=4), Iboprofen (500 mg/ (kg/day); n=4) or vehicle (n=4). The tested conjugate and Ibuprofen were administered orally. Treatment was given daily for a period of 21 days.
Joint tissues were prepared as previously described for measuring the production of PGE2 and cytokines. […] PGE2 concentration was measured with a commercial radio immunoassay (RIA) kit (Amersham, UK) according to the manufacturer's instructions. […] Results were expressed as pg/ml of serum or supernatant from joint homogenate.

[2] = Pharmacokinetic profile after oral administration in rats; format: in vivo, Sprague-Dawley male rats
Protocol: Evaluation of the pharmacokinetic profile of MWL001 after oral administration in rats was performed.
Sprague-Dawley male rats weighing 300-325 g were used to evaluate the oral absorption of MWL001 and its blood levels. They were deprived of food overnight and given free access to water. A dose of 10 mg/kg MWL-001 (3.3 mg/rat) was dispersed in 2.5 mL DDW and delivered to the rats by oral gavage. Blood samples (300 μl) from the rats' tails were collected in heparin containing tubes at 0, 0.5, 1, 1.5, 2, 3, 4, 6, 8, 12 and 24 h. The samples were immediately centrifuged at 10,000 rpm for 5 min, after which 150 μl of plasma samples were transferred to new tubes and stored at −80° C. until analyzed by LCMS/MS.
The assay was based on protein precipitation of MWL001 and DHA (as an MWL001 metabolite) using methanol (100 μL plasma sample mixed with […] of methanol. The separation was carried out under reverse-phase conditions employing a Phenomenex Synergi, column (MAX-RP, 50×2 mm, 2.5 μm, 100A (in gradient mode. The mobile phase A was methanol/water/formic acid 20/80/0.2 and the mobile phase B was methanol/water/formic acid 80/20/0.2. The flow rate was maintained at 0.3 mL/min, and the column was maintained at 40° C. HPLC-MS/MS analysis was performed with a Shimadzu LC-20 HPLC system coupled with a Sciex Qtrap 3200 Turbo Ion Spray detector in positive ionization mode. The tested samples were quantified against a calibration curve in the range of 5-50 ng/mL.

[3] = Acute intraperitoneal (IP) toxicity in the mouse; details: both sexes, in vivo, single IP injection, male and female ICR mice, read-out: MTD (Maximum Tolerated Dose)
Protocol: The objective of this study was to determine the MTD (Maximum Tolerated Dose) and/or assess the potential toxic effects in terms of the MFD (Maximum Feasible Dose) following an acute intraperitoneal (IP) injection of the Test Item MWL002 (Batch No.: 201109) to male and female ICR mice, in consideration of its intended use as an anti-inflammatory and pain relief agent.
MWL002 (Batch No.: 201109) was injected at two dose levels of 1000 (corresponding to the MFD) and 200 mg/kg to two groups consisting of three male and three female ICR mice per group, by a single intraperitoneal (IP) injection. An additional equally-sized group was injected with vehicle and served as the Control group. Dosing was sequential using three male and three female mice per step at 14 days interval. The Test Item or Vehicle Control Dosing Solutions were freshly prepared by the Testing Facility on each day of dosing, by diluting the Test Item or Vehicle Control with Physiological Saline according to the appropriate dose level and a constant volume dosage of 4 ml/kg.

[4] = male, Sprague-Dawley, rat, 10 mg/kg oral gavage, plasma

Compound | Prostaglandin E2 levels in the joints [1] | TNF-α levels [1] | Cl (Clearence) ([2]; 10 mg/kg oral gavage, plasma) [L/h/kg] | V (Volume of distribution) ([2]; 10 mg/kg oral gavage, plasma) | oral absorption / bioavailability ([2]; 10 mg/kg oral, FIG. 9) | AUC [2, 4] [µg·h/mL] | Cmax [2, 4] [µg/mL] | Tmax [2, 4] [h] | half-life ([2]; male, Sprague-Dawley, rat, 10 mg/kg oral gavage, plasma, read-out: T½ (converted)) [h] | metabolism (major metabolite) ([2]; oral, plasma, FIG. 9) | MTD [3] [mg/kg]
CCC=CCC=CCC=CCC=CCC=CCC=CCCC(=O)N1CC(O)CC1C(=O)O (centres unmarked) [MWL001] | significant decrease | significant decrease | 1.5127 ± 0.1891 | 11283.0 ± 3583.1 | high bioavailability | 6.69 ± 0.838 | 1.04 ± 0.0775 | 2.3 ± 0.5 | 4.9 ± 0.6 | undergoes decomposition to DHA | 
CC/C=C\C/C=C\C/C=C\C/C=C\C/C=C\C/C=C\CCC(=O)NCCS(=O)(=O)O [MWL002, N-docosa-4,7,10,13,16,19-hexaenoyl-taurine] |  |  |  |  |  |  |  |  |  |  | 200 to 1000
